Test results: paper PMC7257206, “A novel sphingosylphosphorylcholine and sphingosine-1-phosphate receptor 1 antagonist, KRO-105714, for alleviating atopic dermatitis” (Journal of Inflammation (London, England), 2020)

What was measured:
[1] = molecular target: T1, sphingosine-1-phosphate receptor 1 (S1P1) (Homo sapiens, UniProt P21453); assay: […]-GTPγS binding assay (SPC-stimulated) in membranes of HEK-293 cells stably expressing hS1P1; format: biochemical
T1 construct: gene S1PR1; hS1P1 stably expressed in HEK-293 cells (membrane pellets)

2D6 = molecular target: T2, 2D6 (Homo sapiens, UniProt P10635); assay: biochemical; parameters: CYP450 isoform inhibition assay, IC50; conditions: read-out: CYP450 IC50
T2 construct: gene CYP2D6

2C9 = molecular target: T3, 2C9 (Homo sapiens, UniProt P11712); assay: biochemical
T3 construct: gene CYP2C9

1A2 = molecular target: T4, 1A2 (Homo sapiens, UniProt P05177); assay: biochemical; parameters: CYP450 isoform inhibition assay, IC50; conditions: read-out: CYP450 IC50
T4 construct: gene CYP1A2
T4 sequence (P05177 1-516): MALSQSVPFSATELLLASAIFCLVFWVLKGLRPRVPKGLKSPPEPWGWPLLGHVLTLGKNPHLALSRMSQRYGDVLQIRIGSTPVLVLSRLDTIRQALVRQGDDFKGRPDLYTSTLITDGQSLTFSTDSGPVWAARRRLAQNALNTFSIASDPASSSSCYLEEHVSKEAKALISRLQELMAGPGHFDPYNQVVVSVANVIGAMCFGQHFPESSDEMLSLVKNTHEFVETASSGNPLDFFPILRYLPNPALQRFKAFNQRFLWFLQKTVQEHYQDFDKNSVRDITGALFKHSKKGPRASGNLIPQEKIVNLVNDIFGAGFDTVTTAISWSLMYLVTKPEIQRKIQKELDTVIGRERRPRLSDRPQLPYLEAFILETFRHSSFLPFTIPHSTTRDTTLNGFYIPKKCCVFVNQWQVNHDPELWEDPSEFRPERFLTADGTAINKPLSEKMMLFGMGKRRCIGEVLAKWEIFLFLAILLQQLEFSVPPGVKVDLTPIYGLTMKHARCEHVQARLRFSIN

3A4 = molecular target: T5, 3A4 (Homo sapiens, UniProt P08684); assay: biochemical; parameters: CYP450 isoform inhibition assay, IC50; conditions: read-out: CYP450 IC50
T5 construct: gene CYP3A4

2C19 = molecular target: T6, 2C19 (Homo sapiens, UniProt P33261); assay: biochemical; parameters: CYP450 isoform inhibition assay, IC50; conditions: read-out: CYP450 IC50
T6 construct: gene CYP2C19

hERG potassium channel [2] = molecular target: T7, hERG potassium channel (Homo sapiens, UniProt Q12809); assay: in vitro; parameters: hERG binding assay, [3H]astemizole displacement
T7 construct: gene KCNH2
Experimental: KRO-105714 also had no cardiotoxicity in the hERG potassium channel binding assay (IC50 > 10 μM) (Additional file 1: Table S1B).

hERG potassium channel [3] = molecular target: T7, hERG potassium channel; assay: biochemical

T7 sequence (Q12809 whole entry): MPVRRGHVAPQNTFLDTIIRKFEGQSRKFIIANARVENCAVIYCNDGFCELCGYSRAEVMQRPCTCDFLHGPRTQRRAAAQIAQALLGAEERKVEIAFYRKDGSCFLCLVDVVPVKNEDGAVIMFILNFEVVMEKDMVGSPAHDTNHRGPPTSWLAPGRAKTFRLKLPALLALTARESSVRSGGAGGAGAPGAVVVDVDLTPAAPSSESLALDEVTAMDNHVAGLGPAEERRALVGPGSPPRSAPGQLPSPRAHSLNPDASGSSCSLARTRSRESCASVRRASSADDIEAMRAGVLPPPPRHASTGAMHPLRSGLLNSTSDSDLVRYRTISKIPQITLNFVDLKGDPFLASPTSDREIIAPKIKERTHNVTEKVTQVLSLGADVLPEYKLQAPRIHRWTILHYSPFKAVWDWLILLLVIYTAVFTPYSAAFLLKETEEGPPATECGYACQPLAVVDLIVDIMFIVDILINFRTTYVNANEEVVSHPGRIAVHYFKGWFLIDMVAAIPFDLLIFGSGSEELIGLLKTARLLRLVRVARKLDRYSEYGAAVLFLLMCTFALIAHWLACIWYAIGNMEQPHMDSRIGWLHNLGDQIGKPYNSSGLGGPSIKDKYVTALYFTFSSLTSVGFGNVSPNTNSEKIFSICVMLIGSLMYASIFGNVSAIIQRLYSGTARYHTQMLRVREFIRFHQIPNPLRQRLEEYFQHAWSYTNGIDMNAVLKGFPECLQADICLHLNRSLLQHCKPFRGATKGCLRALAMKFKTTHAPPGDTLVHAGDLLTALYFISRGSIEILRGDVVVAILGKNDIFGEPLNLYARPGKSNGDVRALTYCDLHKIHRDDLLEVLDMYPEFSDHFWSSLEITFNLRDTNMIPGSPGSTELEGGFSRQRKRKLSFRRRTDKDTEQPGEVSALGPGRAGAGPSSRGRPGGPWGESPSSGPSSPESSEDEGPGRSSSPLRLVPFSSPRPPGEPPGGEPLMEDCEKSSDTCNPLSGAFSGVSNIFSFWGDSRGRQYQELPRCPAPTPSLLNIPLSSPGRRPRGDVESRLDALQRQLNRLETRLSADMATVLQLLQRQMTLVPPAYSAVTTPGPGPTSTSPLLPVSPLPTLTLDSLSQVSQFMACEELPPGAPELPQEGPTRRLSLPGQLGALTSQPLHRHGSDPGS
T3 sequence (P11712 whole entry): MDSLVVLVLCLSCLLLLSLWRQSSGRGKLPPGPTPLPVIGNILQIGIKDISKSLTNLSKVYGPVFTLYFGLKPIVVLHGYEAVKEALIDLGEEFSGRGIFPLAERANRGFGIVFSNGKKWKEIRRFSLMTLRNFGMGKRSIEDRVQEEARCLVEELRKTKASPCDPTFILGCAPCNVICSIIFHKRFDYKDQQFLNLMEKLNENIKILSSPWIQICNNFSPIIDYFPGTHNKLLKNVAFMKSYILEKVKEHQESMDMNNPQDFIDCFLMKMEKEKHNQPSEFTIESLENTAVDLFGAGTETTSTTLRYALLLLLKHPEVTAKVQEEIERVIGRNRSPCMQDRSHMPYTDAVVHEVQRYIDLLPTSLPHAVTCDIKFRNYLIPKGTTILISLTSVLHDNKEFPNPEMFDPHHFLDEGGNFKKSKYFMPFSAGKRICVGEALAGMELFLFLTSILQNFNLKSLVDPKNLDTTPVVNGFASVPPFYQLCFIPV
T2 sequence (P10635 whole entry, canonical isoform): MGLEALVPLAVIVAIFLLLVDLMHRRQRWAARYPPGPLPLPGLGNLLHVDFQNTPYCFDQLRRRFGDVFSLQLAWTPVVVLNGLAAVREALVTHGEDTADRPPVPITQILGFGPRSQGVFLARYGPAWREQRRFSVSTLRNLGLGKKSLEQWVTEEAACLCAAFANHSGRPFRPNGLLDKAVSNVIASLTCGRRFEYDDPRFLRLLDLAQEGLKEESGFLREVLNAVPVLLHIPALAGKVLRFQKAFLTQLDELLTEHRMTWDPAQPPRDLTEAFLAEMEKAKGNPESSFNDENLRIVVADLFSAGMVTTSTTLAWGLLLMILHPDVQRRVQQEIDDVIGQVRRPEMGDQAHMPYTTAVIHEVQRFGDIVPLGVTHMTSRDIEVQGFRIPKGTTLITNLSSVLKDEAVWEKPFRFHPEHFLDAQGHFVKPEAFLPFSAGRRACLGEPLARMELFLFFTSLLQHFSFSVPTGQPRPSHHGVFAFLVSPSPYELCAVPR
T6 sequence (P33261 whole entry, canonical isoform): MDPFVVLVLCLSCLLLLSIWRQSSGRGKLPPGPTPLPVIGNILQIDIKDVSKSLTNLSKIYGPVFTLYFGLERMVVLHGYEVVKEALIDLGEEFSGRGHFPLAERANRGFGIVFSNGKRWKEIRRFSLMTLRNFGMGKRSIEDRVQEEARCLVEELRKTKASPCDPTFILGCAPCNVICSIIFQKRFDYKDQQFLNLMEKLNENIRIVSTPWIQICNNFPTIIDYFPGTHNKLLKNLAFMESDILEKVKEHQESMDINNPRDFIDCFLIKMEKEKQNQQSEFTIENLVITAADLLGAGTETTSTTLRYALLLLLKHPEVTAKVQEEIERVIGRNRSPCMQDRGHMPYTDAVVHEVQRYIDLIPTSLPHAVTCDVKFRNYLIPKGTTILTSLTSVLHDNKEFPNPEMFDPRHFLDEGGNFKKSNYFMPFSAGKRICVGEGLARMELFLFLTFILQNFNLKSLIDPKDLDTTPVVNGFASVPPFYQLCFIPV
T5 sequence (P08684 whole entry, canonical isoform): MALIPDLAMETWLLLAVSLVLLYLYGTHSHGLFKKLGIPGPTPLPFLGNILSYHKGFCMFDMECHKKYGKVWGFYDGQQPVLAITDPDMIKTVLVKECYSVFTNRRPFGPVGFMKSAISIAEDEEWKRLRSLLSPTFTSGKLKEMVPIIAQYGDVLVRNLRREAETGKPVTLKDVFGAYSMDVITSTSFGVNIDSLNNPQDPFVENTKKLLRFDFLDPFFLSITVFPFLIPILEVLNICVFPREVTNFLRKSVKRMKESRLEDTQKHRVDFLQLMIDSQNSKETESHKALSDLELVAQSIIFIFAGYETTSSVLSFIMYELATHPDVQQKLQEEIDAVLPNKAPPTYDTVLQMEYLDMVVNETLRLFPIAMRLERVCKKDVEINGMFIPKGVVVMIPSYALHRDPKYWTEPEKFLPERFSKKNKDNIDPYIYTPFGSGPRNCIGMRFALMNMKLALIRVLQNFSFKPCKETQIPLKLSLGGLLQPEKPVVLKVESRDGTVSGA
T1 sequence (P21453 whole entry): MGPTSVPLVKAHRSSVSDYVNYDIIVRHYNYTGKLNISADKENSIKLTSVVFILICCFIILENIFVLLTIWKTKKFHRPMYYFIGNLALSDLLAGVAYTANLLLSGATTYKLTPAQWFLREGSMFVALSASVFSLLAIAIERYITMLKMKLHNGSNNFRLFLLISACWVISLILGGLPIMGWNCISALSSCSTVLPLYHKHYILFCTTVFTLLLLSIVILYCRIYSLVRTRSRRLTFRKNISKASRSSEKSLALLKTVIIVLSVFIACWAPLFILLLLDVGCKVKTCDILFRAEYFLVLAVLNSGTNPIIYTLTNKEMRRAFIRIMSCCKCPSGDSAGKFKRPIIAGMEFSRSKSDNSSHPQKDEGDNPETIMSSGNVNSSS

Work on `COc1ccccc1N1CCN(c2nc(NC(=O)C(C)(C)C)c(C(=O)c3ccccc3)s2)CC1` [KRO-105714] yielded an IC50 [1] of 0.0792 µM, an IC50 (2D6) greater than 10 µM and an IC50 (2C9) greater than 10 µM. It also gave an IC50 (1A2) greater than 10 µM, an IC50 (3A4) greater than 10 µM and an IC50 (2C19) greater than 10 µM. It also gave an inhibition at 10 µM (hERG potassium channel [2]; read-out: %-Inhibition/[3H]Astemizole -5) of 45%, an inhibition at 1 µM (hERG potassium channel [2]; read-out: %-Inhibition/[3H]Astemizole -6) of 3% and an IC50 (hERG potassium channel [3]) greater than 10 µM.
